Reference: patent US8603539B2, “Compositions for drug delivery” (Dr. Reddy's Laboratories Limited, priority 2005, dated 2013)

Tested on: New Zealand white rabbits
Experiment: Comparative dermal irritation study (PDII)
Conditions: rabbit skin, patch 24 hours; erythema and edema scores at 25, 48 and 72 hours
Protocol: Six male New Zealand white rabbits of age between 10 to 15 months and weight in the range of 2 to 3 Kg were used in the study. […] The hair on the backs of the rabbits was clipped and approximately 0.5 g of Test or Reference or Control 2 was placed on a gauze patch and was applied to the skin site. Separate gauze patches containing Test, Reference and Control 2 were applied on the back. The patches were moistened with 0.5 ml physiological saline after application. 0.5 ml of Control 1 was injected into a fourth gauze patch after applying the patch on the skin. The patches were removed after 24 hours.
The test and control items were categorized based on the Primary Dermal Irritation Index (PDII). The PDII was determined as the ratio of total irritation score (TIS) and total number of observations. The TIS was calculated by adding the subtotal values for erythema and edema. The subtotal values for erythema and edema were separately calculated by adding the irritation scores at 25, 48 and 72 hours post-application. The following scoring criteria were used as described in the literature (S. C. Gad et al., Acute Toxicology Testing: Perspectives and Horizons, The Telford Press, Inc., Caldwell, N.J., 1988):

CCCCCCCCCCCCOS(=O)(=O)[O-].[Na+] [Control 1, sodium lauryl sulphate]
PDII (Primary Dermal Irritation Index): 0.44
